In paper PMC5825103 (PLoS ONE, 2018):
Where a chain is given by its changes, count along the chain named. Read-outs that look alike come from different tables or passages of the source.

How the values were obtained:
[1] = target: T1, mouse MR LBD (Mus musculus, UniProt Q8VII8); experiment: GAL4-MR LBD reporter gene assay, U2-OS cells; format: cell-based
T1 construct: expressed in transfected cells; host or cells: U2-OS
T1 sequence (Q8VII8 720-958 limits assumed): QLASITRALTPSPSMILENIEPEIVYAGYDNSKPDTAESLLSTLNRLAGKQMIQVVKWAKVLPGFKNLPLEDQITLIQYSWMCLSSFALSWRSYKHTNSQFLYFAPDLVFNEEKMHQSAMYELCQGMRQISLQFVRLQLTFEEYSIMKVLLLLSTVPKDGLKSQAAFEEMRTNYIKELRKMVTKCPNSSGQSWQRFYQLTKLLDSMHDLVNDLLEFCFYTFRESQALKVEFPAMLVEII
Description: (§1) To assess ligand activities on full length MR, U2-OS cells (ATCC HTB96™) were transiently transfected via electroporation with hMR/pCDNA 3.1 or hMR(M777V)/pCDNA3.1 expression plasmids and a MMTV-luc2P/pGL4.36 reporter plasmid. To determine species specific ligand activities, a reporter plasmid where luciferase is driven by the yeast GAL4 response element was cotransfected with plasmids expressing a fusion protein between the GAL4 DNA binding domain and the human, rat or mouse MR LBD. […] Cells were lysed with SteadyLite (Perkin Elmer) according to manufacturers protocol and luminescence was measured using an Envision plate reader.

[2] = target: T2, rat MR LBD (Rattus norvegicus, UniProt P22199); experiment: GAL4-MR LBD reporter gene assay, U2-OS cells; format: cell-based
T2 construct: expressed in transfected cells; host or cells: U2-OS
T2 sequence (P22199 723-961 limits assumed): T1 sequence (Q8VII8 720-958 limits assumed) with A3T, R7H, S14A, I24T, G49A, F101L, N211S
Description: as §1

[3] = test system: uni-nephrectomised male Sprague-Dawley rats; experiment: organ protection in uni-nephrectomised rats on high-salt diet and aldosterone infusion; format: in vivo, rat; conditions: for UACR 2w: 2 weeks; for average renal pathology score: AZD9977 30 and 100 mg kg^-1 d^-1, eplerenone 10 and 30 mg kg^-1 d^-1; for UACR compared to vehicle treated animals: admixed in diet for four weeks
Protocol: The study on uni-nephrectomised rats was carried out by PreClinOmics (Indianapolis, Indiana, USA) and the study protocol was approved under the provisions outlined in PreClinOmics IACUC ethical application proposal #2013–184. […] The rats were maintained on Purina 5001 standard rodent chow ad libitum during facility acclimation (7 days). Animals were housed 2 rats/cage with a standard 12 hour light cycle and were kept at 22 to 25°C. […] Following mini pump implantation, animals were monitored daily for any clinical signs (especially inflammation at the subcutaneous incision site) for 1 week. […] Drinking water was supplemented with 0.3% KCl to prevent hypokalemia. Standard diet (5001, Purina Teklad, USA) was admixed with 6% NaCl and including test substances (Teklad #9386, Purina Teklad, USA) for the remainder of the study. Animals were assigned to treatment groups (n = 8) based on body weight before pump implantation. […] The test substances were provided in powder form to Purina Teklad for pelleting in Teklad 9386 diet at 0.18, 0.54 or 1.8 g kg^-1 diet. […] Test diets were fed ad libitum for 4 weeks. Animals were placed in standard rodent metabolic cages, on 3 separate occasions, with food and water for collection of 24 hour urine samples at baseline and 2 and 4 weeks after pump implantation. Urine samples were collected at room temperature without additives. Urine volume was measured using a graduated cylinder. Urine creatinine (Beckman, OSR6178) was assayed from fresh sample. […] For details on time points, see Method section for the pharmacokinetic-pharmacodynamic analysis. Animals were anesthetized on day 30 using CO2 inhalation and terminated via induction of pneumothorax. Terminal blood samples were collected by cardiac puncture. […] Premier provided pathologists scoring of Hematoxylin and Eosin, and Masson’s Trichrome stained slides for renal fibrosis and glomerulonephritis. Each animal had two blocks processed, one for myocardium (not reported here) and one for kidney. All blocks were grossed, processed and had two slides cut from each block: one stained with Hematoxylin and Eosin and one stained with Masson’s Trichrome. For kidney sections, pathology involved glomerular lesions, interstitial inflammation and tubular lesions (collectively, “glomerulonephritis”). Fibrosis, both within glomeruli and within the interstitial space, was scored using the Masson’s Trichrome stain. […] All scoring was performed on blinded samples.

[4] = test system: uni-nephrectomised db/db mice; experiment: organ protection in db/db uni-nephrectomised mice; format: in vivo; conditions: for plasma K^+ elevations: 4 weeks treatment; for FE K+ end / FE Na+ end / UAE w22 / p-K+ end / u-K+ end / u-Na+ end / u-Na+/K+ end: after 4 weeks treatment; for UAE w18: before treatment, 18 weeks of age; for increased injury (glomerular ECM scoring) from week 18 to 22: four week treatment
Protocol: Obese diabetic male db/db mice (BKS.Cg-Dock7^m +/+ Lepr^db/J homozygotes) and their littermate male db/m mice were obtained from the Jackson Laboratory (Bar Harbor, ME, USA). […] Mice were subjected to right uninephrectomy at 8 weeks of age to hasten the development of diabetic nephropathy as described previously [43]. Db/m mice that received a uninephrectomy at 8 weeks of age served as the operation control. […] All surgery was performed under isoflurane anesthesia, and all efforts were made to minimize suffering.
The blood glucose level and glycosylated hemoglobin (HbA1C) levels were monitored in tail blood samples using a blood glucose meter (Glucometer Elite XL, Bayer Healthcare, Elkhart, IN, USA) and the DC 2000+ HbA1C kit (Bayer Healthcare), respectively, before treatment and at the time of sacrifice. Twenty-four-hour urine was obtained from each mouse after placement in metabolic cages before treatment and at the time of sacrifice. Urine albumin was measured using the DC2000+ microalbumin reagent kit (Bayer Healthcare).
Mice were sacrificed under isoflurane anesthesia. Blood samples were obtained by cardiac puncture for the measurements of plasma compound, K^+ and creatinine concentrations. Plasma K^+ levels were determined on a Radiometer ABL 700 blood gas analyser (Radiometer, Copnchagen DK). Plasma creatinine levels were determined by LC-MS/MS. Urine creatinine was measured by the Jaffe method (Creatinine FS, REF117119910021, DiaSys). Kidneys were perfused through the heart with cold PBS and then excised. One piece of renal cortex was fixed in 10% neutralized formalin for histological staining.
Formalin-fixed renal cortex tissues were subsequently embedded in paraffin. Three-micrometer sections were cut from the tissue blocks and stained with periodic acid-Schiff (PAS). The PAS-positive glomerular matrix was quantitated in a blinded fashion by a computer-assisted method as previously described [43]. At least 20 glomeruli from each individual mouse were assessed. The PAS-positive material area in the mesangium was normalized by that of the total glomerular tuft where the percentage of mesangial matrix occupying each glomerulus area was rated. Glomerular sclerosis index was graded from 0 to 4+ as follows: 0 represents no lesion, 1+ represents sclerosis of <25% of the glomerulus, while 2 =, 3+ and 4+ represent sclerosis of 25% to 50%, >50% to 75%, and >75% of the glomerulus, respectively. A whole kidney average sclerosis index was obtained by averaging scores from all glomeruli on one section.

[5] = unbound fraction in rat plasma; format: in vitro ADME
[6] = ± SD, read-out: pIC50 (converted)

SMILES: CNC(=O)C[C@H]1COc2cc(F)ccc2N1C(=O)c1ccc2c(c1)NC(=O)CO2 [AZD9977, (S)-2-(7-Fluoro-4-(3-oxo-3,4-dihydro-2H-benzo[b][1, 4]oxazine-6-carbonyl)-3,4-dihydro-2H-benzo[b][1, 4]oxazin-3-yl)-N-methylacetamide]
- IC50 ([1]; read-out: IC50): 0.08 µM
- IC50 ([2]; read-out: IC50): 0.08 µM
- UACR start ([3]; 10 mg kg-1 d-1 group): 20 ± 7 µg/mg
- UACR 2w ([3]; 10 mg kg-1 d-1 in diet): 2133 ± 705 µg/mg
- FE K+ end ([3]; 10 mg kg-1 d-1 in diet): 28.0 ± 2.6%
- UACR end ([3]; 10 mg kg-1 d-1 in diet): 5604 ± 689 µg/mg
- p-K+ end ([3]; 10 mg kg-1 d-1 in diet): 4.9 ± 0.2 mM
- u-K+ end ([3]; 10 mg kg-1 d-1 in diet): 10.2 ± 0.4 mmol/24h
- u-Na+ end ([3]; 10 mg kg-1 d-1 in diet): 23.8 ± 1.0 mmol/24h
- u-Na+/K+ end ([3]; 10 mg kg-1 d-1 in diet): 2.34 ± 0.04
- UACR start ([3]; 30 mg kg-1 d-1 group): 13 ± 3 µg/mg
- UACR 2w ([3]; 30 mg kg-1 d-1 in diet): 1200 ± 569 µg/mg
- FE K+ end ([3]; 30 mg kg-1 d-1 in diet): 27.2 ± 1.2%
- UACR end ([3]; 30 mg kg-1 d-1 in diet): 3076 ± 756 µg/mg
- p-K+ end ([3]; 30 mg kg-1 d-1 in diet): 5.0 ± 0.3 mM
- u-K+ end ([3]; 30 mg kg-1 d-1 in diet): 10.6 ± 0.5 mmol/24h
- u-Na+ end ([3]; 30 mg kg-1 d-1 in diet): 26.6 ± 0.9 mmol/24h
- u-Na+/K+ end ([3]; 30 mg kg-1 d-1 in diet): 2.53 ± 0.04
- UACR start ([3]; 100 mg kg-1 d-1 group): 13 ± 2 µg/mg
- UACR 2w ([3]; 100 mg kg-1 d-1 in diet): 148 ± 34 µg/mg
- FE K+ end ([3]; 100 mg kg-1 d-1 in diet): 20.1 ± 0.7%
- UACR end ([3]; 100 mg kg-1 d-1 in diet): 900 ± 83 µg/mg
- p-K+ end ([3]; 100 mg kg-1 d-1 in diet): 5.2 ± 0.1 mM
- u-K+ end ([3]; 100 mg kg-1 d-1 in diet): 9.2 ± 0.5 mmol/24h
- u-Na+ end ([3]; 100 mg kg-1 d-1 in diet): 24.7 ± 1.1 mmol/24h
- u-Na+/K+ end ([3]; 100 mg kg-1 d-1 in diet): 2.71 ± 0.05
- average renal pathology score [3]: Reduction
- UACR compared to vehicle treated animals [3]: dose dependently reduced
- plasma K^+ elevations [4]: did not cause plasma K^+ elevations
- FE K+ end [4]: 20.1 ± 0.9%
- FE Na+ end [4]: 0.24 ± 0.01%
- UAE w22 [4]: 588 ± 80 µg 24h-1
- p-K+ end [4]: 3.9 ± 0.2 mM
- u-K+ end [4]: 0.97 ± 0.10 mmol/24h
- u-Na+ end [4]: 0.45 ± 0.05 mmol/24h
- u-Na+/K+ end [4]: 0.47 ± 0.01
- UAE w18 [4]: 797 ± 169 µg 24h-1
- increased injury (glomerular ECM scoring) from week 18 to 22 [4]: prevented
- urine albumin excretion (UAE) compared to vehicle treatment ([4]; four week treatment from 18 weeks of age): reduced the urine albumin excretion
- fraction unbound [5]: 0.57

SMILES: COC(=O)[C@@H]1CC2=CC(=O)CC[C@]2(C)[C@@]23O[C@@H]2C[C@@]2(C)[C@@H](CC[C@@]24CCC(=O)O4)[C@H]13 [eplerenone]
- IC50 ([1]; read-out: IC50): 0.09 µM
- IC50 [1, 6]: 0.0794 µM
- IC50 [2, 6]: 0.0398 µM
- UACR start ([3]; 10 mg kg-1 d-1 group): 11 ± 2 µg/mg
- UACR 2w ([3]; 10 mg kg-1 d-1 in diet): 408 ± 173 µg/mg
- FE K+ end ([3]; 10 mg kg-1 d-1 in diet): 25.0 ± 1.3%
- UACR end ([3]; 10 mg kg-1 d-1 in diet): 1689 ± 394 µg/mg
- p-K+ end ([3]; 10 mg kg-1 d-1 in diet): 4.8 ± 0.2 mM
- u-K+ end ([3]; 10 mg kg-1 d-1 in diet): 10.1 ± 0.5 mmol/24h
- u-Na+ end ([3]; 10 mg kg-1 d-1 in diet): 25.4 ± 1.1 mmol/24h
- u-Na+/K+ end ([3]; 10 mg kg-1 d-1 in diet): 2.51 ± 0.05
- UACR start ([3]; 30 mg kg-1 d-1 group): 10 ± 2 µg/mg
- UACR 2w ([3]; 30 mg kg-1 d-1 in diet): 88 ± 23 µg/mg
- FE K+ end ([3]; 30 mg kg-1 d-1 in diet): 23.0 ± 1.0%
- UACR end ([3]; 30 mg kg-1 d-1 in diet): 456 ± 66 µg/mg
- p-K+ end ([3]; 30 mg kg-1 d-1 in diet): 5.1 ± 0.2 mM
- u-K+ end ([3]; 30 mg kg-1 d-1 in diet): 9.6 ± 0.3 mmol/24h
- u-Na+ end ([3]; 30 mg kg-1 d-1 in diet): 26.7 ± 0.9 mmol/24h
- u-Na+/K+ end ([3]; 30 mg kg-1 d-1 in diet): 2.77 ± 0.03
- average renal pathology score [3]: Reduction
- UACR compared to vehicle treated animals [3]: dose dependently reduced
- plasma K^+ elevations [4]: did not cause plasma K^+ elevations
- FE K+ end [4]: 22.3 ± 1.0%
- FE Na+ end [4]: 0.27 ± 0.02%
- UAE w22 [4]: 569 ± 76 µg 24h-1
- p-K+ end [4]: 3.8 ± 0.1 mM
- u-K+ end [4]: 0.85 ± 0.10 mmol/24h
- u-Na+ end [4]: 0.40 ± 0.05 mmol/24h
- u-Na+/K+ end [4]: 0.48 ± 0.02
- UAE w18 [4]: 892 ± 186 µg 24h-1
- increased injury (glomerular ECM scoring) from week 18 to 22 [4]: prevented
- fraction unbound [5]: 0.66
